In US20070049518A1, “Novel method of treatment of inflammatory skin conditions” (priority 2005, published 2007):

What was measured:
[1] = target: T1, human MMP-2 (Homo sapiens, UniProt P08253); assay: MMP enzyme inhibition assay, MMP-2; format: biochemical; details: pH 7.5, 37° C., 1 hour
T1 construct: purchased Calbiochem
T1 sequence (P08253 110-660): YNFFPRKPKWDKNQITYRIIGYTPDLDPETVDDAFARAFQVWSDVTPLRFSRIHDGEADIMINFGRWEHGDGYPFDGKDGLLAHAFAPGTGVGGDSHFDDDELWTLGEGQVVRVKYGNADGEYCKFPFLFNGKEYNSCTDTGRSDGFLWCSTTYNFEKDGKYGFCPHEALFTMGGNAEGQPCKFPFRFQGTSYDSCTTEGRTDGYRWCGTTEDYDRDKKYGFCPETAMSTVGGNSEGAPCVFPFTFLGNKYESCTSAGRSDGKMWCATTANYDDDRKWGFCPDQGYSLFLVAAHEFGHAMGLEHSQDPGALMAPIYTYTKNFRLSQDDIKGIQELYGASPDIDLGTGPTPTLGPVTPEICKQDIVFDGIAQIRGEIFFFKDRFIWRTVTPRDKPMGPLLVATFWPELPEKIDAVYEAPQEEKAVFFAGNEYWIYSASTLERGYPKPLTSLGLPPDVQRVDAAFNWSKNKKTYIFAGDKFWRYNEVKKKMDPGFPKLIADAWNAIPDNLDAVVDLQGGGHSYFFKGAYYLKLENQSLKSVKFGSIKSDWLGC

[2] = target: T2, human MMP-8 (Homo sapiens, UniProt P22894); assay: MMP enzyme inhibition assay, MMP-8; format: biochemical; details: pH 7.5, 37° C., 1 hour
T2 construct: purchased Calbiochem
T2 sequence (P22894 101-467): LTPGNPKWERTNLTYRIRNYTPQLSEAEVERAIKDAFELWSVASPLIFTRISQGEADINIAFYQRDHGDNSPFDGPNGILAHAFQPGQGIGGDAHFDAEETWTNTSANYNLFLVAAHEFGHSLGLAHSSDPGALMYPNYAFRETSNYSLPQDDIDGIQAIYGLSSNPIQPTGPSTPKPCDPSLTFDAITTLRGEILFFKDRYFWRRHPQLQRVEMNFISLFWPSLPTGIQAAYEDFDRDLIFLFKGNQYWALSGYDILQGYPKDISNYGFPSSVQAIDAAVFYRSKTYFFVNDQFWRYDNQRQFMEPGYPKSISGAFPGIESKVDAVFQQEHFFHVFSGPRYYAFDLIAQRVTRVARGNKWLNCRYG

[3] = target: T3, human MMP-9 (Homo sapiens, UniProt P14780); assay: MMP enzyme inhibition assay, MMP-9; format: biochemical; details: pH 7.5, 37° C., 1 hour
T3 construct: purchased Calbiochem
T3 sequence (P14780 94-707): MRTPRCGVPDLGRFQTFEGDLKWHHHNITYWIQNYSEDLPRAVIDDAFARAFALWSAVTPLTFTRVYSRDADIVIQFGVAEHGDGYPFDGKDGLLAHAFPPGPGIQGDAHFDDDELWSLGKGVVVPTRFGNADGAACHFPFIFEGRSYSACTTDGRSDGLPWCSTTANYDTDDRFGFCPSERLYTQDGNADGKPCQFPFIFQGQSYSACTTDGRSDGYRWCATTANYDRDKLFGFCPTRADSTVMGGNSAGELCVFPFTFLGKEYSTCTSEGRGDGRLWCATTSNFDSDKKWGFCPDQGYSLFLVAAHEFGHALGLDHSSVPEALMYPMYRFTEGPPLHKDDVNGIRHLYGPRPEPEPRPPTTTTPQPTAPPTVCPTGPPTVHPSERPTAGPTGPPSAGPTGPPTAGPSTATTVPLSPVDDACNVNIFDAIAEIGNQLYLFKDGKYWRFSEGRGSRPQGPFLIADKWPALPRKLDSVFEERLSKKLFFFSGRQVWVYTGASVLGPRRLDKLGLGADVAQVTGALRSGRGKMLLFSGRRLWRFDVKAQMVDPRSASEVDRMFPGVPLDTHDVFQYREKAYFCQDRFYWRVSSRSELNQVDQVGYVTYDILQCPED

[4] = tested on: S. aureus 8325-4; assay: S. aureus viability, viable cell counts; format: cell-based, Staphylococcus aureus; details: 50 μM compound; 16 h at 37° C.
Protocol: Brain heart infusion medium (5 ml; Becton Dickinson and Co.) containing 10% skimmed milk and 1% (v/v) DMSO vehicle ±50 μM compound was inoculated with S. aureus 8325-4 (approximately 10^7 cells in tryptic soy broth) and incubated for 16 h at 37° C./220 rpm. Duplicate samples (0.1 ml) were then removed from each culture, diluted into PBS, spread onto brain heart infusion agar (1.5%) and incubated at 37° C.

[5] = tested on: Cysteine protease in S. aureus 8325-4 culture supernatant; assay: Cysteine protease activity in supernatant of S. aureus grown with compound; format: cell-based, Staphylococcus aureus
Protocol: Duplicate samples of brain heart infusion medium (5 ml; Becton Dickinson and Co.) containing 10% skimmed milk and 2% (v/v) DMSO vehicle±Compound 12 were inoculated with S. aureus 8325-4 (approximately 10^7 cells in tryptic soy broth) and incubated for 16 h at 37° C./220 rpm. Cultures were centrifuged to remove bacteria and the culture supernatants stored at −70° C. pending analysis of protease activity.
Enzyme activities were measured in mixtures containing 90 mM MOPS (sodium) buffer pH 7.0 (0.1 ml), 0.045% Brij 35, 2% (v/v) DMSO vehicle±Compound 12 and culture supernatant (4 μl). The concentration of compound used was the same as that which had been used to culture the assayed sample. Further additions to the reaction mixtures were as follows. Aureolysin assay: 4.5 mM calcium chloride, 9 μM E-64 (to inhibit cysteine protease activity) and 10 μM Mca-Pro-Leu-Gly-Leu-Dap(Dnp)-Ala-Arg-amide (Bachem); V8 protease assay: 10 μM Mca-Leu-Glu-Val-Asp-Gly-Trp-Lys(Dnp)-amide (Bachem); cysteine protease assay: 1.8 mM cysteine-HCl (pH-adjusted with NaOH), 9 mM EDTA and 0.1 mM Z-Phe-Arg-AMC hydrochloride (Bachem). The rate of product formation at 37° C. was monitored over 6 h taking readings at 15 min intervals using a POLARstar OPTIMA plate reader (BMG LABTECH Ltd) with 320 nm excitation/405 nm emission for aureolysin and V8 assays and 390 nm excitation/460 nm emission for the cysteine protease assay. Enzyme activities were determined from the linear rate of fluorescence increase and converted to percent inhibition by reference to vehicle control samples.

[6] = Solubility in water; format: physicochemical; details: particularly when the solid is in amorphous form
[7] = tested on: protease activity in skin wash samples from patients with acute AD; assay: Zymographic analysis of skin wash samples; format: biochemical, human; details: 50 μM; gelatin zymogram gel; 6 samples acute AD
Protocol: A method has been developed to evaluate protease activity in skin washings. Skin washings from patients with acute eczema may be obtained by aspirating 0.5 ml sterile physiological saline over the skin surface using a sterile, disposable plastic Pasteur pipette The skin area (˜1 cm^2) is defined by a sterile open-ended plastic cylinder. Samples were transferred to 0.05 ml 0.55 M MOPS buffer pH 7.0, 55 mM calcium chloride and 0.2% Brij 35, mixed, centrifuged to remove debris and frozen at −70° C. pending analysis.
Zymographic analysis of the protease content of the samples may be done by mixing with 0.2 volume 0.2M Tris-HCl pH 6.8 containing 37.5% (v/v) glycerol and 2.5% sodium dodecylsulphate followed by electrophoresis through a gelatin zymogram gel (Invitrogen Corporation) according to the manufacturer's instructions. Gels were washed in 2.5% (w/v) Triton X-100 in 25 mM MOPS buffer pH 7 with or without compound 11 (50 μM) and developed overnight at 37° C. in 0.1M MOPS buffer pH 7 containing 5 mM calcium chloride with or without compound 11 (50 μM). Zones of clearing due to proteolytic activity may be identified by staining with Coomassie Brilliant Blue R followed by destaining in 40% (v/v) methanol/10% (v/v) acetic acid. […]

Row | Structure (SMILES) | IC50 [1] [nM] | IC50 [2] [nM] | IC50 [3] [nM] | Viable cell counts, Cells/ml [4] | Inhibition (%) Cysteine protease ([5]; Compound 12 40 μM in culture and assay) [%] | Inhibition (%) Cysteine protease ([5]; Compound 12 79 μM in culture and assay) [%] | Inhibition (%) Cysteine protease ([5]; Compound 12 159 μM in culture and assay) [%] | Inhibition (%) Cysteine protease ([5]; Compound 12 317 μM in culture and assay) [%] | solubility in water (in words) [6] | inhibition of protease activity in skin wash samples, zymography (in words) [7]
1 | CNC(=O)[C@@H](NC(=O)[C@H](CC(=O)NO)CC(C)C)C(C)(C)C [Compound 12, (S)—N1-((S)-3,3-dimethyl-1-(methylamino)-1-oxobutan-2-yl)-N4-hydroxy-2-isobutylsuccinamide] | 2700 | 1400 | 4600 | 1.3 × 10^9 Cells/ml | 27 | 53 | 78 | 87 | particularly soluble in water | –
2 | CNC(=O)[C@@H](NC(=O)[C@@H](CC(=O)NO)CC(C)C)C(C)(C)C [Compound 11, (R)—N1-((S)-3,3-dimethyl-1-(methylamino)-1-oxobutan-2-yl)-N4-hydroxy-2-isobutylsuccinamide] | 1.9 | 1.4 | 3.6 | 1.6 × 10^9 Cells/ml | – | – | – | – | – | significant inhibition of protease activity
